Measurements published in patent US10577369B2, “Substituted quinazolinones for inhibiting PI3K” (priority 2016, dated 2020).
Like-named read-outs stand apart in the source and are kept apart here.

Key:
Phospho-Akt (Ser473) = assay: AKT (Ser473) phosphorylation in leukemia and lymphoma cell lines (immunoblotting); type: cell-based; conditions: 1 μM, 1 hour; SUDHL 5, SUDHL 10, CCRF-SB, MOLT4; FIG. 2
From the text: Subsequently, cells were lysed and fractionated according to size, followed by immunoblotting with antibodies directed against Phospho-Akt (Ser473).

[1] = test system: diffuse large B-cell lymphoma (DLBCL) and acute lymphocytic leukemia (ALL) cells; assay: Apoptosis of DLBCL and ALL cells by SDS-PAGE / immunoblotting (caspase 3, 9, PARP cleavage); type: cell-based; conditions: 50 μM, 36 hours; FIG. 4
Description: Immunoblotting analysis was performed using antibodies of these, and glyceraldehyde-3-phosphate dehydrogenase (GAPDH) was used as a loading control.

[2] = test system: diffuse large B-cell lymphoma (DLBCL) and acute lymphocytic leukemia (ALL) cells; assay: Apoptosis of DLBCL and ALL cells by flow cytometry (Annexin V-FITC/PI); type: cell-based; conditions: 50 μM, 24 hours, FIG. 5
Description: The cells were washed with PBS, and then suspended in a binding buffer. 5 μl of an Annexin V-FITC stock solution (Becton Dickinson Science, Inc) and 5 μl of PI (20 μg/ml) were added thereto, followed by incubation at room temperature for 15 minutes with light-shielding, and then the target material was quantified on FACScan™ (Becton Dickinson) by flow cytometry.

[3] = test system: human umbilical vein endothelial cells (HUVECs); assay: Angiogenesis inhibition, HUVEC tube formation; type: cell-based; conditions: HUVECs on basement membrane matrix, 18 hours; FIG. 7
Description: After 18 hours, tube formation was photographed using a Cytation™ 5 fluorescence microscope (BioTek), and the number of areas formed by branch points was counted using software (see FIG. 6).

SupB15 (ALL) cells = assay: Growth inhibition of leukemia cells (CCK-8), SupB15; type: cell-based; conditions: Homo sapiens, read-out: LC50 SupB15 (ALL)
Description: (§1) Cell growth-inhibiting effects on the DLBCL-derived cells and the ALL-derived cells were evaluated by measuring the absorbance of cell counting kit-8 (CCK-8) dye. During the last 3 hours of the 48 hours, […] of a CCK-8 dye was added to each plate and then cultured.
(§2) All data are expressed as the mean (±SD) of three independent experiments.

PI3K p110γ = target: T1, PI3K p110γ (Homo sapiens, UniProt P48736); assay: PI3K kinase activity test (Adapta kinase assay), p110γ; type: biochemical
T1 construct: purchased Thermo Fisher Scientific Inc. (SelectScreen Services)
T1 sequence (P48736 whole entry): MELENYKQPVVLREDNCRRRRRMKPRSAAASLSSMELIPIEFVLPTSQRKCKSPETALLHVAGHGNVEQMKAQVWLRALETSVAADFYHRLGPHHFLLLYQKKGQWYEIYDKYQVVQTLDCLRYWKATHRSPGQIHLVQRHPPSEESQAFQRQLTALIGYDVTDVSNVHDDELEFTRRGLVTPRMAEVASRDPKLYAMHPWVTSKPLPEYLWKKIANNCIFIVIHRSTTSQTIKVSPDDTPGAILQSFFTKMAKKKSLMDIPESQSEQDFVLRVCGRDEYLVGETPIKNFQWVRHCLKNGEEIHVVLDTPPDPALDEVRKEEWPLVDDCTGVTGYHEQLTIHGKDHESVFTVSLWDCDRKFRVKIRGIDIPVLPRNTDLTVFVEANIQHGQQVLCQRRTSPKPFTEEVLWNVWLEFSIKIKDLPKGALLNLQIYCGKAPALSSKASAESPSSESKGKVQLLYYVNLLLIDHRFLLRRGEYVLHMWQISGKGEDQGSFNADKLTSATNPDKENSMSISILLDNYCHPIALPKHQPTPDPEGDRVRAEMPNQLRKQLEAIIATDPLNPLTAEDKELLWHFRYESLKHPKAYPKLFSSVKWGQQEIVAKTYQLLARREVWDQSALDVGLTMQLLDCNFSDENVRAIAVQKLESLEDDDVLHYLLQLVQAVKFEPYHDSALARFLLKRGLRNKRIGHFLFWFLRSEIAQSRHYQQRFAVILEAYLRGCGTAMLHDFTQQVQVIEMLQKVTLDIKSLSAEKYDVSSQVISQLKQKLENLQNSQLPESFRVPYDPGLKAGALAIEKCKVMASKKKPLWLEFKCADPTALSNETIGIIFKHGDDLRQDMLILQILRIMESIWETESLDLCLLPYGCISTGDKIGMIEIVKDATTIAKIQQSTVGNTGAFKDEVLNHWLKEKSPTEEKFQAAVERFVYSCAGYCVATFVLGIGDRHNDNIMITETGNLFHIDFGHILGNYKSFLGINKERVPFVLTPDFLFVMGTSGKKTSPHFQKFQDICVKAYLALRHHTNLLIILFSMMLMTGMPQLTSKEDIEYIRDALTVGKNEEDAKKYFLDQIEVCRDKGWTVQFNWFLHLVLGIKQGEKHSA
Description: (§3) An experiment was conducted using a homogeneous, fluorescence-based immunoassay, which is Adapta kinase assay. SelectScreen™ Services available from Thermo Fisher Scientific Inc. was carried out.

rats = assay: Single dose toxicity test in rats; type: in vivo, rat; conditions: single oral dose, female rats, observed day 1 to day 2; approximate lethal dose
Description: The compound of Formula 7 and the compound of Formula 8 were orally administered to eight six-week-old female rats, to observe the single dose oral toxicity thereof and to obtain an approximate lethal dose. The dosage was set at 10 mL/kg, and the dosage for each rat was calculated based on body weight. Each compound was administered at doses of 100 mg/kg, 300 mg/kg, 900 mg/kg, and 1,500 mg/kg, and general symptoms were observed once a day from day 1 to day 2 after administration.

PI3K p110α = target: T2, PI3K p110α (Homo sapiens, UniProt P42336); assay: PI3K kinase activity test (Adapta kinase assay), p110α; type: biochemical
T2 construct: purchased Thermo Fisher Scientific Inc. (SelectScreen Services)
T2 sequence (P42336 whole entry): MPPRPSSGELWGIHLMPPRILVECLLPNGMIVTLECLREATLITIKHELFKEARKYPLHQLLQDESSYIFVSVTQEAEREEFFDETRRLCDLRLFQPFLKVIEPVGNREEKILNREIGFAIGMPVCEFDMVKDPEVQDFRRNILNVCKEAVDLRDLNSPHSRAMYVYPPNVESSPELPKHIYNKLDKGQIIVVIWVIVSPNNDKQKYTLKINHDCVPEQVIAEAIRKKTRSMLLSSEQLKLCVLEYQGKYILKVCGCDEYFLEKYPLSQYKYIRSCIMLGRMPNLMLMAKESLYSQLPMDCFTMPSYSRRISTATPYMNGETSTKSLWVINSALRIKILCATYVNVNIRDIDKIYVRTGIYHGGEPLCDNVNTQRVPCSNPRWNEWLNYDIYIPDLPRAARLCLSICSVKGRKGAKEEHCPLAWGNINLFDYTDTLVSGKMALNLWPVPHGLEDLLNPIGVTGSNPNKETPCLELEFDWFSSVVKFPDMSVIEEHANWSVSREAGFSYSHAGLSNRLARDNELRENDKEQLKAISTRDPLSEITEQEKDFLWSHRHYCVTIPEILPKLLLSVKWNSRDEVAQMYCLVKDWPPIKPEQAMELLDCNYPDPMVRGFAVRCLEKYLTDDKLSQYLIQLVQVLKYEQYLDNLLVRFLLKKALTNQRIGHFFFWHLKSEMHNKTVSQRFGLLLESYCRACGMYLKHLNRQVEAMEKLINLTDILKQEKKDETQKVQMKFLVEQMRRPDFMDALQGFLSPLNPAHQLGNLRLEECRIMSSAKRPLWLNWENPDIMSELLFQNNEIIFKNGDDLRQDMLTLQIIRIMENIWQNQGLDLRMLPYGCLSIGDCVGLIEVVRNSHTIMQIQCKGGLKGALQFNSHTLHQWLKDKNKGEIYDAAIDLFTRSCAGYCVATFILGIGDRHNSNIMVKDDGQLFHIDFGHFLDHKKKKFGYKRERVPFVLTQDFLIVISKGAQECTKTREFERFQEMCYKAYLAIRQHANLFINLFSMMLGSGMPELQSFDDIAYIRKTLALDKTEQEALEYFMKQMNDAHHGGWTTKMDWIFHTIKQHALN
T2 sequence (P27986 whole entry partner): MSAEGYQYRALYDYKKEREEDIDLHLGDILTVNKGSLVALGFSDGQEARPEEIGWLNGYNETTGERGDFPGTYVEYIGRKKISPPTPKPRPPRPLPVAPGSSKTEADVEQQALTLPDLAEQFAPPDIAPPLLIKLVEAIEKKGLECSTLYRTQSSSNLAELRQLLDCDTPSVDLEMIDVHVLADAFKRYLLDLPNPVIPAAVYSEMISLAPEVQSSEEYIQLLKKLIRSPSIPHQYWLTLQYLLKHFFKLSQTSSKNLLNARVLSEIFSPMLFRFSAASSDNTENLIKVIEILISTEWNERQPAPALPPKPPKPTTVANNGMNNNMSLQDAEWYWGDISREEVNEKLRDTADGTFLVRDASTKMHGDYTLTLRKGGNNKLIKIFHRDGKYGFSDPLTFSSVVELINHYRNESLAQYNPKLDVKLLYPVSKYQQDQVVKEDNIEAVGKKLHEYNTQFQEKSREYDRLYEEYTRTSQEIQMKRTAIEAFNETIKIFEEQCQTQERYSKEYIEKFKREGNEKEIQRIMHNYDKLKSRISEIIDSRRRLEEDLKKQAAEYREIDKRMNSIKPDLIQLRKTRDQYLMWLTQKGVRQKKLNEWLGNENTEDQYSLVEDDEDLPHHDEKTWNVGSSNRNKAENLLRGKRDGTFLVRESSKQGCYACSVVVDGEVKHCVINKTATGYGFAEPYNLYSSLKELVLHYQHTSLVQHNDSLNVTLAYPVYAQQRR
Description: as §3

[4] = test system: human umbilical vein endothelial cells (HUVECs); assay: Number of viable HUVECs treated with compound; type: cell-based; conditions: FIG. 8
MOLT4 (ALL) cells = assay: Growth inhibition of leukemia cells (CCK-8), MOLT4; type: cell-based; conditions: Homo sapiens, read-out: LC50 MOLT4 (ALL)
Description: as §1, §2

PI3K p110δ = target: T3, PI3K p110δ (Homo sapiens, UniProt O00329); assay: PI3K kinase activity test (Adapta kinase assay), p110δ; type: biochemical; conditions: for IC50: Adapta kinase assay; for ratio PI3Kα/PI3Kδ, as IC50 values / ratio PI3Kβ/PI3Kδ, as IC50 values / ratio of PI3Kγ/PI3Kδ: selectivity, ratio of IC50 values
T3 construct: purchased Thermo Fisher Scientific Inc. (SelectScreen Services)
T3 sequence (O00329 whole entry): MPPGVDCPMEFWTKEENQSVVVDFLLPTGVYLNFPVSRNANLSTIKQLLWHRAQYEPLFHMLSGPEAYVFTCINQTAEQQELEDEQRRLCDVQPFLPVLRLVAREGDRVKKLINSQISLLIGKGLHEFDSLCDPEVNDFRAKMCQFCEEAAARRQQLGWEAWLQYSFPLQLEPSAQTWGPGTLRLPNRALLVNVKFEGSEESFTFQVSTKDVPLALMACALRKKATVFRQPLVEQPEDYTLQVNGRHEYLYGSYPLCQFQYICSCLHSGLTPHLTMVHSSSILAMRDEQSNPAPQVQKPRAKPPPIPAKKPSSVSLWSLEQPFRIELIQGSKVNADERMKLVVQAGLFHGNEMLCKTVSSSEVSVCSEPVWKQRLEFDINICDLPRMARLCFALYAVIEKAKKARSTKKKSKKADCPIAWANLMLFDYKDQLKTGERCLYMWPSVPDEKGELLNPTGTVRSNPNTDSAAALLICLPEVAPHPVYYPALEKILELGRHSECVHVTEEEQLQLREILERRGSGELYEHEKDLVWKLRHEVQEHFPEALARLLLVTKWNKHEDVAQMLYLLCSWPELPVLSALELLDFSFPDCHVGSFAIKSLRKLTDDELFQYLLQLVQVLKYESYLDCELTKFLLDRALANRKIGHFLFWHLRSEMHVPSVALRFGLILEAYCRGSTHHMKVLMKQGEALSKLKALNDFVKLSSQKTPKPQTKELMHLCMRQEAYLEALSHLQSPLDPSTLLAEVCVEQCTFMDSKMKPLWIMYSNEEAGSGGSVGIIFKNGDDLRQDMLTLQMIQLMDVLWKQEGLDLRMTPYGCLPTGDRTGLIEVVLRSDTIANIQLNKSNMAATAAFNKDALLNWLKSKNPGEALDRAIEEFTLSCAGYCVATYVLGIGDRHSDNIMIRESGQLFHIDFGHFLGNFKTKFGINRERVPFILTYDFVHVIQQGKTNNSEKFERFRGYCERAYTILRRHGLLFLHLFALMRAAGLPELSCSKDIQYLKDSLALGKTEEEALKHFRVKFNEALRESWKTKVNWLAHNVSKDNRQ
T3 sequence (P27986 whole entry partner): as the sequence (P27986 whole entry partner) above
Description: as §3

PI3K p110β = target: T4, PI3K p110β (Homo sapiens, UniProt P42338); assay: PI3K kinase activity test (Adapta kinase assay), p110β; type: biochemical
T4 construct: purchased Thermo Fisher Scientific Inc. (SelectScreen Services)
T4 sequence (P42338 whole entry): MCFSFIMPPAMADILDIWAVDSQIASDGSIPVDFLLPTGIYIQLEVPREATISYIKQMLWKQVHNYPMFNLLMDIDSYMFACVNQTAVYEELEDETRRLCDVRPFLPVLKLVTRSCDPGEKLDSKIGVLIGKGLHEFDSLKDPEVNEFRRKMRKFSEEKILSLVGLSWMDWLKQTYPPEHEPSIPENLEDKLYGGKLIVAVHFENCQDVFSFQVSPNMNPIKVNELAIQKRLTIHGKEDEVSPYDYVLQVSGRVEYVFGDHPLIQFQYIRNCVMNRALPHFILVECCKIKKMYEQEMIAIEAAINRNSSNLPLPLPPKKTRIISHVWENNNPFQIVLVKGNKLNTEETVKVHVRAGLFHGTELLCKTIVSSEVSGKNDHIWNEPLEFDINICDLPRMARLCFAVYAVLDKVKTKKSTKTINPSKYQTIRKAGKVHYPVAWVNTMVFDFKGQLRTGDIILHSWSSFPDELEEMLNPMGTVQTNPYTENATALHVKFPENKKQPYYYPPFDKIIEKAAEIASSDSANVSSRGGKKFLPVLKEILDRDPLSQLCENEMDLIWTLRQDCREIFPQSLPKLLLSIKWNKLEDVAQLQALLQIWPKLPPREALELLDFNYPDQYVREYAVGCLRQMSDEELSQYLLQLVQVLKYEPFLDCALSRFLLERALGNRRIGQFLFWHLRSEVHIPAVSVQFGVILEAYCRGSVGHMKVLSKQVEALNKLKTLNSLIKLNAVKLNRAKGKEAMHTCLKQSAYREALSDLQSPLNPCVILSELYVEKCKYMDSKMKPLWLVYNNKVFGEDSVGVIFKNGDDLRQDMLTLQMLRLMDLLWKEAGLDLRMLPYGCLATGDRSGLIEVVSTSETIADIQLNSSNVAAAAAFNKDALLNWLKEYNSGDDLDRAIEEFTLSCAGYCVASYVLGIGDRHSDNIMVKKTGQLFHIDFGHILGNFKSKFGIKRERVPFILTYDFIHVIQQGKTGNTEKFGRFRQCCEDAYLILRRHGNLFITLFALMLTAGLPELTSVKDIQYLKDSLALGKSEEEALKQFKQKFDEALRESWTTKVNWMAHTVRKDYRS
T4 sequence (P27986 whole entry partner): as the sequence (P27986 whole entry partner) above
Description: as §3

SUDHL5 (DLBCL) cells = assay: Growth inhibition of lymphoma cells (CCK-8), SUDHL5; type: cell-based; conditions: Homo sapiens, read-out: LC50 SUDHL5 (DLBCL)
Description: as §1, §2

O=c1c2c(F)cccc2nc([C@@H](Nc2ncnc3nc[nH]c23)C2CC2)n1-c1ccccc1 [Formula 7, (S)-2-(((7H-purin-6-yl)amino)(cyclopropyl)methyl)-5-fluoro-3-phenylquinazolin-4(3H)-one]
reduction of AKT (Ser473) phosphorylation (Phospho-Akt (Ser473)): induced the reduction of AKT phosphorylation | apoptosis compared with comparative drug idelalisib (SDS-PAGE) [1]: apoptosis occurred more actively | apoptosis induction (SDS-PAGE, immunoblotting) [1]: induced apoptosis | apoptosis induction compared with idelalisib (flow cytometry) [2]: more effectively induced apoptosis than the comparative drug | inhibition of angiogenesis (tube formation) compared with idelalisib [3]: inhibited angiogenesis more than the comparative drug | CC50 (SupB15 (ALL) cells; SUP-B15, 48 h): > 20000 nM | IC50 (PI3K p110γ): 25.7 nM | lethal dose (rats): > 1,500 mg/kg | IC50 (PI3K p110α): 206 nM | cytotoxicity to HUVECs (number of viable cells) [4]: did not significantly affect the cytotoxicity | CC50 (MOLT4 (ALL) cells; MOLT-4, 48 h): 13700 nM | IC50 (PI3K p110δ): 0.5 nM | ratio PI3Kα/PI3Kδ, as IC50 values (PI3K p110δ): 412 | ratio PI3Kβ/PI3Kδ, as IC50 values (PI3K p110δ): 210 | ratio of PI3Kγ/PI3Kδ (PI3K p110δ): 51 | IC50 (PI3K p110β): 105 nM | CC50 (SUDHL5 (DLBCL) cells; SU-DHL-5, 48 h): 1100 nM

Cc1cccc2nc([C@@H](Nc3ncnc4nc[nH]c34)C3CC3)n(-c3ccccc3)c(=O)c12 [Formula 8, (S)-2-(((7H-purin-6-yl)amino)(cyclopropyl)methyl)-5-methyl-3-phenylquinazolin-4(3H)-one]
reduction of AKT (Ser473) phosphorylation (Phospho-Akt (Ser473)): induced the reduction of AKT phosphorylation | apoptosis compared with comparative drug idelalisib (SDS-PAGE) [1]: apoptosis occurred more actively | apoptosis induction (SDS-PAGE, immunoblotting) [1]: induced apoptosis | apoptosis induction compared with idelalisib (flow cytometry) [2]: more effectively induced apoptosis than the comparative drug | inhibition of angiogenesis (tube formation) compared with idelalisib [3]: inhibited angiogenesis more than the comparative drug | CC50 (SupB15 (ALL) cells; SUP-B15, 48 h): 16500 nM | IC50 (PI3K p110γ): 8.6 nM | lethal dose (rats): 1,500 mg/kg | IC50 (PI3K p110α): 134 nM | cytotoxicity to HUVECs (number of viable cells) [4]: did not significantly affect the cytotoxicity | CC50 (MOLT4 (ALL) cells; MOLT-4, 48 h): 4900 nM | IC50 (PI3K p110δ): 0.09 nM | ratio PI3Kα/PI3Kδ, as IC50 values (PI3K p110δ): 1,488 | ratio PI3Kβ/PI3Kδ, as IC50 values (PI3K p110δ): 1,800 | ratio of PI3Kγ/PI3Kδ (PI3K p110δ): 95 | IC50 (PI3K p110β): 162 nM | CC50 (SUDHL5 (DLBCL) cells; SU-DHL-5, 48 h): 900 nM

CC[C@H](Nc1ncnc2[nH]cnc12)c1nc2cccc(F)c2c(=O)n1-c1ccccc1 [Idelalisib, idelalisib, reference compound]
CC50 (SupB15 (ALL) cells; SUP-B15, 48 hours, CCK-8): > 20000 nM | CC50 (MOLT4 (ALL) cells; MOLT-4, 48 hours, CCK-8): > 20000 nM | CC50 (SUDHL5 (DLBCL) cells; SU-DHL-5, 48 hours, CCK-8): 3000 nM
